{"source": "patent US20110046223A1", "about": "“TREATMENT OF NEUROFIBROMATOSIS” (RAMOT AT TEL-AVIV UNIVERSITY LTD., priority 2006, published 2011)", "key": {"Ras-GTP": {"system": "Ras-GTP", "experiment": "steady-state Ras-GTP, GST-RBD pull-down assay", "type": "cell-based, human", "conditions": "75 μM FTS, 48 hours, TS265P21, 90-8, and ST88-14 cells, P<0.03", "description": "(§1) Unless otherwise indicated, cells were lysed 48 hours after being treated with lysis buffer, as described in Haklai, et al., supra. […] Protein bands were visualized by ECL and quantified by densitometry with Image Master VDS-CL (Amersham) using TINA 2.0 software (Ray Tests). To obtain reliable comparisons between replicated experiments for statistical analysis, a standardization procedure was used, in which the density of each given protein band as recorded with its specific Ab, was normalized. […] The standard average density was defined as 1.0, and each of the individually determined bands was related to this value. […] Actin cytoskeletal elements were labeled with rhodamine-phalloidin, and digital fluorescence images were collected on a Zeiss LSM 510 confocal microscope fitted with fluorescein and rhodamine filters, as described in Gana-Weisz, M., et al., supra.\nTo determine whether the steady-state levels of active Ras in the MPNST cell lines correlated with neurofibromin deficiency, the GST-Ras binding domain of Raf-1 (RBD) pull-down assay and Western immunoblotting with anti-Ras Ab was performed. […] Thus, the relatively large amounts of Ras-GTP detected in the MPNST cell lines and the relatively small amounts in the non-NF-1 MPNST (FIG. 1D) correlated well with the observed neurofibromin deficiency (FIG. 1C). […]"}, "p120 RasGAP": {"system": "p120 RasGAP", "experiment": "p120 RasGAP amounts, immunoblot", "type": "cell-based, human", "conditions": "75 μM FTS, 48 hours, NF-1 and non-NF-1 cells", "description": "Unless otherwise indicated, cells were lysed 48 hours after being treated with lysis buffer, as described in Haklai, et al., supra. […] Protein bands were visualized by ECL and quantified by densitometry with Image Master VDS-CL (Amersham) using TINA 2.0 software (Ray Tests). To obtain reliable comparisons between replicated experiments for statistical analysis, a standardization procedure was used, in which the density of each given protein band as recorded with its specific Ab, was normalized. […] The standard average density was defined as 1.0, and each of the individually determined bands was related to this value. […] Actin cytoskeletal elements were labeled with rhodamine-phalloidin, and digital fluorescence images were collected on a Zeiss LSM 510 confocal microscope fitted with fluorescein and rhodamine filters, as described in Gana-Weisz, M., et al., supra. […]"}, "ST88-14 cells": {"system": "ST88-14 cells", "experiment": "ST88-14 tumor growth in nude mice", "type": "in vivo, nude CD1-Nu male mice", "conditions": "six weeks", "description": "ST88-14 cells (5×10^6) in Matrigel were implanted subcutaneously (s.c.) just above the right femoral joint of nude CD1-Nu male mice (6 weeks old). Two weeks later palpable tumors were observed and the mice were separated randomly into vehicle-treated control and FTS-treated groups. Two types of treatment protocols were used. (1) The first protocol was intraperitoneal (i.p.) administration (0.1 mL) of vehicle, 1 mg/kg, 5 mg/kg or 10 mg/kg FTS (n=6 per group). The FTS solution was prepared in saline containing phosphate buffer as described in Haklai, et al., supra. (2) The second protocol was oral administration of FTS. Mice received vehicle or 20, 40, 60, or 80 mg/kg FTS (n=10 per group). The FTS mixture for oral administration was prepared in PBS/0.5% carboxymethyl cellulose. Mice were sacrificed 6 weeks after the start of the treatment, and tumors were removed and weighed. Student's t-test was used for data analysis.\n[Ozerdem, U., Angiogenesis 7:307-11 (2004)]. Thus, to determine whether FTS inhibited tumor growth in the nude mouse model, two types of treatments were preformed. The first was i.p. administration of 1, 5, or 10 mg/kg FTS, as earlier described. [Weisz, B., et al., supra.]. The second was oral administration, which required higher FTS doses of 20, 40, 60, and 80 mg/kg. Six weeks after the treatment the mice were sacrificed and tumors were removed and weighed."}, "phospho-ERK": {"system": "phospho-ERK", "experiment": "steady-state phospho-ERK, Western immunoblotting", "type": "cell-based, human", "description": "as §1\n(§2) Next, to determine whether down-regulation of active Ras by FTS was accompanied by inhibition of Ras signaling, the effect of FTS on steady-state levels of phospho-ERK, phospho-Akt, and RalA-GTP as read-outs of the three prominent Ras pathways, Ras/Raf/MEK/ERK, Ras/PI3K/Akt, and Ras/RalGEF/RalA, respectively, was examined. […]"}, "RalA-GTP": {"system": "RalA-GTP", "experiment": "steady-state RalA-GTP, GST-RalBD pulldown assay", "type": "cell-based, human", "description": "as §1, §2"}}}
{"smiles": "CC(C)=CCC/C(C)=C/CC/C(C)=C/CSc1ccccc1C(=O)O", "note": "[FTS, S-farnesylthiosalicylic acid]", "values": [{"measurement": "reduction in steady-state levels of Ras-GTP", "setting": "Ras-GTP", "value": "25%-55%"}, {"measurement": "amounts of p120 RasGAP", "setting": "p120 RasGAP", "value": "no effect"}, {"measurement": "inhibition of tumor growth (tumor weight)", "setting": "ST88-14 cells; i.p., 10 mg/kg FTS, P<0.05", "value": 49, "unit": "%"}, {"measurement": "tumor growth, dose dependence", "setting": "ST88-14 cells; i.p., 1, 5, or 10 mg/kg FTS", "value": "dose-dependent inhibition of tumor growth"}, {"measurement": "inhibition of tumor growth (tumor weight)", "setting": "ST88-14 cells; oral, 80 mg/kg FTS, P<0.01", "value": 58, "unit": "%"}, {"measurement": "tumor growth, dose dependence", "setting": "ST88-14 cells; oral, 20, 40, 60, and 80 mg/kg FTS", "value": "dose-dependent inhibition of tumor growth"}, {"measurement": "steady-state phospho-ERK", "setting": "phospho-ERK; all NF-1 cell lines", "value": "significant reduction"}, {"measurement": "increase in phospho-ERK", "setting": "phospho-ERK; non-NF-1 STS26T cells, steady state", "value": "10%-20%"}, {"measurement": "steady-state RalA-GTP", "setting": "RalA-GTP; all NF-1 cell lines", "value": "significant reduction"}, {"measurement": "steady-state RalA-GTP", "setting": "RalA-GTP; non-NF-1 STS26T cells", "value": "significant reduction"}]}
